Reference: patent EP2387573B1, “6-PHENYL-1H-IMIDAZO[4,5-C]PYRIDINE-4-CARBONITRILE DERIVATIVES AS CATHEPSIN S AND/OR CATHEPSIN K INHIBITORS” (Organon BioSciences Nederland B.V., priority 2009, dated 2010)
Where a name gives a salt, the structure may show the parent alone.

Experiments:
Cathepsin S [1] = molecular target: T1, Cathepsin S (Homo sapiens, UniProt P25774); assay: Cathepsin S assay procedure (inhibition of recombinant enzyme, fluorogenic substrate Z-Val-Val-Arg-AMC); assay type: biochemical; conditions: pH5.5, fluorescence at 20 minutes; read-out: pIC50 (negative logarithm of the IC50 concentration) for inhibition of human cathepsin S (converted)
T1 sequence (P25774 115-331): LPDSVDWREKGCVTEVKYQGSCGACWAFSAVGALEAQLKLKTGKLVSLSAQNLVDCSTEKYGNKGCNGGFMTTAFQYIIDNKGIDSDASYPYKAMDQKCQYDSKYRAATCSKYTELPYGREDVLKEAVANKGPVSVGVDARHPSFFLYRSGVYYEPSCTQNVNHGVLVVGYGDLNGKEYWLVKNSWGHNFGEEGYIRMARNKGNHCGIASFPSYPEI
Description: EXAMPLE 32 Cathepsin S assay procedure
25µl of a 2mg/l solution of activated recombinant human cathepsin S, in assay buffer, is then added to the well, yielding a final inhibitor concentration of 10µM.
Enzyme activity is determined by measuring the fluorescence of the liberated aminomethylcoumarin at […] using 390nm excitation, at 20 minutes. Percentage enzyme activity is calculated by comparison of this activity to that of a solution containing no inhibitor. Compounds are subsequently subjected to a dose response curve analysis in order to determine IC50 values for active compounds (where IC50 is the concentration of test compound causing 50 % inhibition of the enzymatic activity). Compounds of the invention typically have a pIC50 (negative logarithm of the IC50 concentration) for inhibition of human cathepsin S of more than 6. Most compounds of the invention have a pIC50 of more than 7, such as exemplified by the compounds of examples 1a, 1b, 2a, 7d, 12a, 14a, 14b, 14c, 14d, 14e, 14f, 14g, 14h, 14i, 17, 18.

Cathepsin S [2] = molecular target: T1, Cathepsin S; assay: Cell based lip10 assay (Lip10 accumulation, anti-CD74 ELISA); design: endogenous in cells; host or cells: Jiyoye human B lymphoblastoid cells; conditions: Human B lymphoblastoid cells (Jiyoye), 24 hours, relative to E64d / LHVS-treated cells; read-out: pEC50 (negative logarithm of the EC50 concentration) (converted)
Excerpt: In some cases, these cell based activities are up to 100 fold greater than previously disclosed compounds in WO 2007/080191.
EXAMPLE 34 Cathepsin S assay
During normal antigen presentation, Lip10 is proteolytically degraded to enable loading of a peptide fragment and subsequent MHC-II presentation on the surface of antigen presenting cells. The cleavage process is mediated by Cathepsin S. Thus, the Lip10 assay is an in vitro measure of a compound's ability to block cathepsin S and by extension antigen presentation. A compound that causes the accumulation of Lip10 at low concentration would be expected to block presentation of antigens.
Cell based lip10 assay procedure
Human B lymphoblastoid cells (Jiyoye) were cultured in RPMI 1640 medium at a density of 500 000 cells/ml in 24-well plates. Cells were treated with a concentration range of compounds (0.001-10µM) and vehicle alone (DMSO, 0.1% v/v). In order to generate positive control treatments separate wells were treated with 10µM E64d & 0.1µM LHVS. The cells were incubated at 37°C in a humidified incubator containing 5% CO2. After 24 hours the plates were centrifuged at 150 x g for five minutes and the media removed. Cells were lysed by adding 65µl of ice-cold phosphate buffered saline (PBS) containing 1% (v/v) Triton X-100 and protease inhibitors and incubated on ice for 20 minutes. The samples were centrifuged at 18 000 x g for 15 minutes at 4°C and the resulting supernatants collected and stored at -80°C until required. After measurement of protein concentration using a micro-BCA protein assay all samples were diluted to 10µg protein/ml and 50µl of each sample were coated overnight at 4°C onto wells of high protein-binding 96-well plates. The wells were washed once with PBS (200µl/well) and then incubated at room temperature for 2 hours with 10µg/ml mouse anti-CD74 Pin.1 monoclonal antibody (50µl/well) in PBS containing 0.05% (v/v) Tween-20 (PBS-T) and 2% (w/v) BSA (PBS-T/BSA). Unbound antibody was then removed by washing three times with PBS-T and followed by the addition of rabbit anti-mouse IgG antibody conjugated to horseradish peroxidase. After washing five times with PBS-T 100µl of tetramethylbenzidine substrate was added to each well and incubated for 10 minutes on a plate shaker. The reaction was stopped by the addition of 100µl of 1 M hydrochloric acid. Antibody binding was quantified by measuring the optical density (OD, 450nm) using a Molecular Devices Spectramax Plus. The OD of vehicle-only treated cells was removed from all values and the data was expressed as a percentage of the OD generated from the mean E64d / LHVS-treated cells. The potency of compounds (EC50) was measured by calculating the concentration of inhibitor required to generate 50% inhibition relative to E64d / LHVS-treated cells.

IC50 (Cathepsin S [1]) [nM] | EC50 (Cathepsin S [2]) [nM] | SMILES
< 100 |  | Cn1cnc2c(C#N)nc(-c3ccc(OCCCNS(C)(=O)=O)c(C(F)(F)F)c3)cc21 [Example 1a, N-(3-(4-(4-cyano-1-methyl-1H-imidazo[4,5-c]pyridin-6-yl)-2-(trifluoromethyl)phenoxy)propyl)methanesulfonamide]
< 100 |  | CC(=O)NCCCOc1ccc(-c2cc3c(ncn3C)c(C#N)n2)cc1C(F)(F)F [Example 1b, 6-[4-(3-acetylaminopropoxy)-3-(trifluoromethyl)-phenyl]-1-methyl-1H-imidazo[4,5-c]pyridine-4-carbonitrile]
< 100 |  | CC(=O)N(C)CCCOc1ccc(-c2cc3c(ncn3C)c(C#N)n2)cc1C(F)(F)F [Example 2a, 6-{4-[3-(N-acetyl-N-methylamino)propoxy]-3-(trifluoromethyl)-phenyl}-1-methyl-1H-imidazo[4,5-c]pyridine-4-carbonitrile]
< 100 |  | CC(=O)N(C)CCOc1ccc(-c2cc3c(ncn3C)c(C#N)n2)cc1C(F)(F)F [Example 7d, 1-methyl-6-(4-(2-(N-acetyl-N-methylamino)ethoxy)-3-(trifluoromethyl)phenyl)-1H-imidazo[4,5-c]pyridine-4-carbonitrile]
< 100 | < 100 | CCN(C)c1cc(COc2ccc(-c3cc4c(ncn4C)c(C#N)n3)cc2C(F)(F)F)ccn1 [Example 12a, 1-Methyl-6-{4-[(2-(N-ethyl-N-methylamino)-pyridin-4-yl)-methoxy]-3-(trifluoromethyl)-phenyl}-1H-imidazo[4,5-c]pyridine-4-carbonitrile Hydrocloride]
 | < 100 | CCNc1cc(COc2ccc(-c3cc4c(ncn4C)c(C#N)n3)cc2C(F)(F)F)ccn1 [Example 12b, 1-Methyl-6-{4-[(2-(N-ethylamino)-pyridin-4-yl)-methoxy]-3-(trifluoromethyl)-phenyl}-1H-imidazo[4,5-c]pyridine-4-carbonitrile]
 | < 100 | CNc1cc(COc2ccc(-c3cc4c(ncn4C)c(C#N)n3)cc2C(F)(F)F)ccn1 [Example 12c, 1-Methyl-6-{4-[(2-(N-methylamino)-pyridin-4-yl)-methoxy]-3-(trifluoromethyl)-phenyl}-1H-imidazo[4,5-c]pyridine-4-carbonitrile]
< 100 | < 100 | Cn1cnc2c(C#N)nc(-c3ccc(OCCC4CCN(Cc5ncco5)CC4)c(C(F)(F)F)c3)cc21 [Example 14a, 1-methyl-6-(4-(2-(1-(oxazol-2-ylmethyl)piperidin-4-yl)ethoxy)-3-(trifluoromethyl)phenyl)-1H-imidazo[4,5-c]pyridine-4-carbonitrile hydrochloride]
< 100 | < 100 | Cc1cc(CN2CCC(CCOc3ccc(-c4cc5c(ncn5C)c(C#N)n4)cc3C(F)(F)F)CC2)no1 [Example 14b, 1-methyl-6-(4-(2-(1-((5-methylisoxazol-3-yl)methyl)piperidin-4-yl)ethoxy)-3-(trifluoromethyl)phenyl)-1H-imidazo[4,5-c]pyridine-4-carbonitrile]
< 100 | < 100 | Cc1noc(C)c1CN1CCC(CCOc2ccc(-c3cc4c(ncn4C)c(C#N)n3)cc2C(F)(F)F)CC1 [Example 14c, 6-(4-(2-(1-((3,5-dimethylisoxazol-4-yl)methyl)piperidin-4-yl)ethoxy)-3-(trifluoromethyl)phenyl)-1-methyl-1H-imidazo[4,5-c]pyridine-4-carbonitrile]
< 100 | < 100 | CN(C)C(=O)CN1CCC(CCOc2ccc(-c3cc4c(ncn4C)c(C#N)n3)cc2C(F)(F)F)CC1 [Example 14d, 6-(4-(2-(1-(2-dimethylamino-2-oxo-ethyl)piperidin-4-yl)ethoxy)-3-(trifluoromethyl)phenyl)-1-methyl-1H-imidazo[4,5-c]pyridine-4-carbonitrile]
< 100 |  | Cn1cnc2c(C#N)nc(-c3ccc(OCCC4CCN(CC(=O)N5CCCC5)CC4)c(C(F)(F)F)c3)cc21 [Example 14e, 6-(4-(2-(1-(2-oxo-2-(pyrrolidin-1-yl)ethyl)piperidin-4-yl)ethoxy)-3-(trifluoromethyl)phenyl)-1-methyl-1H-imidazo[4,5-c]pyridine-4-carbonitrile]
< 100 |  | Cn1cnc2c(C#N)nc(-c3ccc(OCCC4CCN(CCF)CC4)c(C(F)(F)F)c3)cc21 [Example 14f, 6-(4-(2-(1-(2-fluoroethyl)piperidin-4-yl)ethoxy)-3-(trifluoromethyl)phenyl)-1-methyl-1H-imidazo[4,5-c]pyridine-4-carbonitrile]
< 100 |  | Cn1cnc2c(C#N)nc(-c3ccc(OCCC4CCN(CC(F)F)CC4)c(C(F)(F)F)c3)cc21 [Example 14g, 6-(4-(2-(1-(2,2-difluoroethyl)piperidin-4-yl)ethoxy)-3-(trifluoromethyl)phenyl)-1-methyl-1H-imidazo[4,5-c]pyridine-4-carbonitrile]
< 100 |  | COCCN1CCC(CCOc2ccc(-c3cc4c(ncn4C)c(C#N)n3)cc2C(F)(F)F)CC1 [Example 14h, 6-(4-(2-(1-(2-methoxyethyl)piperidin-4-yl)ethoxy)-3-(trifluoromethyl)phenyl)-1-methyl-1H-imidazo[4,5-c]pyridine-4-carbonitrile]
< 100 |  | Cn1cnc2c(C#N)nc(-c3ccc(OCCC4CCN(Cc5nccs5)CC4)c(C(F)(F)F)c3)cc21 [Example 14i, 1-methyl-6-(4-(2-(1-(thiazol-2-ylmethyl)piperidin-4-yl)ethoxy)-3-(trifluoromethyl)-phenyl)-1H-imidazo[4,5-c]pyridine-4-carbonitrile]
< 100 |  | Cn1cnc2c(C#N)nc(-c3ccc(OCCN4C=NC(C)(C)C4=O)c(C(F)(F)F)c3)cc21 [Example 18, 6-(4-(2-(4,4-dimethyl-5-oxo-4,5-dihydro-1H-imidazol-1-yl)ethoxy)-3-(trifluoromethyl)phenyl)-1-methyl-1H-imidazo[4,5-c]pyridine-4-carbonitrile TFA salt]
